Assay: Pharmacokinetics test in beagles after oral administration of Compound A (plasma, HPLC-FL method)
Format: in vivo, beagle
Conditions: for AUC(0-inf) / Cmax / half-life: plasma, po, 0.3 mg/kg
Protocol: In this example, after oral administration of Compound A, a pharmacokinetics test was carried out, in accordance with the following procedure. In the test, a time course of changes in concentrations of the unreacted compound and metabolites was measured.
Compound A was suspended in 0.5% methyl cellulose solution, and the suspension was orally administered to 10 male beagles (0.3 mg/kg). Blood was collected from each subject after 0.25, 0.5, 1.0, 2.0, 4.0, and 8.0 hours from the administration. Plasma was extracted by liquid-liquid extraction, and then, a time course of changes in concentrations of the unreacted compound and metabolites in plasma was measured according to a simultaneous measurement method (hereinafter referred to as HPLC-FL method) using HPLC and a fluorescence detector.
Conditions in the HPLC-FL method measuring Compound A and metabolites simultaneously are shown in Table 9, and concentration gradients of mobile phases are shown in Table 10.
The beagles for the pharmacokinetics test used in this example were previously selected by carrying out a phenotype analysis. In the pharmacokinetics test, 5 dogs (type I) in which the major metabolite was MM-2, and 5 dogs (type II) in which the major metabolites were MM-1 and MM-5, were used. The time course of changes in concentrations of Compound A and metabolites thereof in plasma are shown in Table 1 (type I) and Table 2 (type II)
As pharmacokinetic parameters, time of maximum observed concentration (Tmax), concentration corresponding to Tmax (Cmax), area under the plasma concentration-time curve from the time of dosing extrapolated to infinity (AUCinf), and terminal half-life (T1/2) were calculated.

[1] = male, beagle, dog, type I (EM) beagles, n = 5, plasma after oral Compound A 0.3 mg/kg
[2] = male, beagle, dog, type II (PM) beagles, n = 5, plasma after oral Compound A 0.3 mg/kg
[3] = unreacted compound in plasma, oral 0.3 mg/kg, type II (PM) vs type I (EM) beagles

Q: With `CCn1c(=O)nc(C2CCCCC2)c2ccc(C)nc21` [Compound A, 4-cyclohexyl-1-ethyl-7-methylpyrido[2,3-d]pyrimidin-2(1H)-one] as the compound, how does the AUC(0-inf) [1] read?
A: 2.8 ± 1.6 ng·h/mL

Q: And the Cmax [1]?
A: 3.2 ± 1.5 ng/mL

Q: What about the half-life [1] of the same compound?
A: 36 ± 12 min

Q: What about the AUC(0-inf) [2] of the same compound?
A: 27.2 ± 20.2 ng·h/mL

Q: What about the Cmax [2] of the same compound?
A: 24 ± 14.8 ng/mL

Q: What about the half-life [2] of the same compound?
A: 48 ± 24 min

Q: What about the Tmax [1] of the same compound?
A: 18 min

Q: And the “AUCinf of type II relative to type I” value [3]?
A: 9.7 times

Q: And the “Cmax of type II relative to type I” value [3]?
A: 7.5 times
